Test results as given in patent publication US10894790B2, “Production method of thiazole derivative” (KYOWA KIRIN CO., LTD., priority 2015, dated 2021).
Read-outs that look alike come from different tables or passages of the source. Blank lines part the entries; values can stand above or below the molecule they belong to.

Tests used:
[1] = Absorbability test: plasma kinetics of compound IA after oral administration; assay type: in vivo; details: male rats; for AUC0→∞ / Cmax / t1/2 / tmax / AUC(0-inf) / half-life: plasma compound IA
Description: HA crystal and A crystal obtained in Examples 11 and 12 were orally administered to male rats respectively, and plasma kinetics of compound IA were evaluated.

[2] = Stability test (preservation of crystal, powder X-ray diffraction); assay type: physicochemical
Description: Powder X-ray diffraction (permeation method) was measured by pulverizing a sample in an agate mortar, placing an appropriate amount thereof on a sample plate, and measuring diffraction peaks by changing the diffraction angle 2θ from 5° to 40°. The irradiate X ray used was copper Kα ray (CuKα ray), and tube voltage was set to […], tube electric current was set to 40 mA, step angle was set to 0.017°, and counting time was set to 0.56°/sec. The thermal analysis was performed by placing about 2 mg of a sample on an aluminum cell, and measuring differential scanning calorie (DSC) at a temperature rise rate of 10° C./min.
The A crystal obtained in Example 12 was preserved under the conditions of 40° C./75% RH (relative humidity) and 40° C./90% RH (relative humidity) for 6 months each, and powder X-ray diffraction was measured. […] It was confirmed that A crystal is stable even after preservation for a long term under humidified conditions of 40° C./75% RH (relative humidity) and 40° C./90% RH (relative humidity).
The HA crystal obtained in Example 11 was preserved for 2 weeks at 60° C., and then powder X-ray diffraction was measured. […] That is, a part of HA crystal is considered to undergo crystal transition to A crystal at 60° C.

[3] = male, rat, plasma, po, 10 mg/kg

bioavailability (in words) [1]: good bioavailability
rise of plasma concentration, A crystal compared with HA crystal [1]: increased more rapidly
BA ([1]; dose 1 mg/kg): 53.7%
AUC0→∞ ([1]; dose 1 mg/kg): 5350 ng·h/mL
Cmax ([1]; dose 1 mg/kg): 1410 ± 270 ng/mL
t1/2 ([1]; dose 1 mg/kg): 2.26 ± 0.26 h
tmax ([1]; dose 1 mg/kg): 1.00 ± 0.00 h
BA ([1]; dose 10 mg/kg): 51.2%
AUC0→∞ ([1]; dose 10 mg/kg): 51000 ng·h/mL
Cmax ([1]; dose 10 mg/kg): 11400 ± 1400 ng/mL
t1/2 ([1]; dose 10 mg/kg): 1.77 ± 0.09 h
tmax ([1]; dose 10 mg/kg): 1.67 ± 0.58 h
change of powder X-ray diffraction pattern after preservation ([2]; 40° C./75% RH, 6 months): did not show any change
change of powder X-ray diffraction pattern after preservation ([2]; 40° C./90% RH, 6 months): did not show any change
SMILES: Cc1ccc(C(=O)Nc2nc(-c3ccco3)c(C(=O)C3CCOCC3)s2)cn1 [A crystal]

bioavailability (in words) [1]: good bioavailability
BA ([1]; dose 1 mg/kg): 59.5%
BA ([1]; dose 10 mg/kg): 56.8%
Cmax ([1]; male, rat, plasma, po, 1 mg/kg, dose 1 mg/kg, read-out: Cmax): 1500 ± 100 ng/mL
tmax ([1]; male, rat, plasma, po, 1 mg/kg, dose 1 mg/kg, read-out: tmax): 1.33 ± 0.58 h
AUC(0-inf) ([1]; male, rat, plasma, po, 1 mg/kg): 5930 ng·h/mL
half-life ([1]; male, rat, plasma, po, 1 mg/kg): 2.08 ± 0.13 h
Cmax ([1]; male, rat, plasma, po, 10 mg/kg, dose 10 mg/kg, read-out: Cmax): 10900 ± 800 ng/mL
tmax ([1]; male, rat, plasma, po, 10 mg/kg, dose 10 mg/kg, read-out: tmax): 2 h
AUC(0-inf) [1, 3]: 56600 ng·h/mL
half-life [1, 3]: 3.43 ± 1.14 h
SMILES: Cc1ccc(C(=O)Nc2nc(-c3ccco3)c(C(=O)C3CCOCC3)s2)cn1 [HA crystal]
change of powder X-ray diffraction pattern after preservation ([2]; 60° C., 2 weeks): show a diffraction peak characteristic of A crystal
